Results: paper PMC10590056, “Design and synthesis of cabotegravir derivatives bearing 1,2,3-triazole and evaluation of anti-liver cancer activity” (Frontiers in Pharmacology, 2023)
Values joined by “and” are separate entries in the source; they are usually repeats but may differ in a detail not shown here. Identical values can stand only once. Like-named read-outs stand apart in the source and are kept apart here.

Tests used:
Format in all cases: cell-based
[1] = system: HepG2 cells; assay: MTT assay for cell proliferation and cytotoxicity, HepG2; design: key to Inhibitory rate: inhibition rate = 1 - mean A490 sample/mean A490 control (fraction); conditions: for Inhibitory rate / ODtreated/ODcontrol / inhibition at 4 µM: HepG2; for Inhibitory rate / ODtreated/ODcontrol: fraction, per experiment; for inhibition at 4 µM / IC50 / inhibition at 16 µM: Homo sapiens; for inhibition at 4 µM: liver cancer cells, read-out: Inhibition rate on liver cancer cells; for IC50: HepG2, 48 h, MTT; for inhibition at 16 µM: preliminary screening, HepG2, 16 μM, 48 h, mean±SD, unit inferred, read-out: Inhibition rate (16μM), 48 h, HepG2
Procedure: (§1) HepG2, HeLa, MCF-7, and KYSE-30 cells were grown in a humidified incubator at 37°C with 5% CO2 in DMEM supplemented with 10% fetal bovine serum (FBS), […] streptomycin, and 100 U/mL penicillin.
(§2) When HepG2 cells reached 80% confluence, they were treated with 1 mL of trypsin and resuspended at a density of 10^5 cells/mL. Then, 100 μL of cell suspension was seeded into each well of a 96-well plate and incubated in a humidified atmosphere. The different concentrations of KJ-5 and KJ-12 (0, 1, 2, 4, 8, 16, and 32 μM) were added to each well, and the cells were further incubated for 48 h. Afterward, 20 μL of the MTT solution (5 mg/mL) was added to each well, and incubation was continued for another 4 h. The supernatant was discarded, and 200 μL of the DMSO solution was added to each well. The plate was shaken for 10 min in the dark. The absorbance values were measured at 490 nm using an enzyme-linked detector. The cell inhibition rate (%) was calculated using the following formula: (1-Mean A490 sample/Mean A490 control) × 100%.

[2] = system: KYSE-30 cells; assay: MTT assay for cell proliferation, KYSE-30; design: key to Inhibitory rate: inhibition rate = 1 - mean A490 sample/mean A490 control (fraction); conditions: for inhibition at 16 µM: preliminary screening, KYSE-30, 16 μM, 48 h, mean±SD, read-out: Inhibition rate (16μM), 48 h, KYSE-30
Procedure: as §1, §2

[3] = system: HepG2 cells; assay: DAPI staining for cell apoptosis (morphology); conditions: HepG2, 2, 4, 8 μM, 24 h
Procedure: Apoptotic morphological changes were determined by DAPI staining. HepG2 cells were seeded in a 48-well plate and treated with different concentrations of KJ-5 and KJ-12 (2, 4, and 8 μM) for 24 h. After 24 h, they were then washed with PBS and fixed with 4% paraformaldehyde for 20 min. Subsequently, they were then washed with PBS and treated with DAPI (10 μg/mL) at 37°C for 5 min. After washing with PBS, the cells were resuspended in PBS for the rest of the experiment. A fluorescence microscope was used to observe the apoptotic morphological changes.

[4] = system: HepG2 cells; assay: Cell cycle analysis (PI, flow cytometry); conditions: 24 h; for Percentage of cells in the S phase (change vs control): HepG2, 2-8 μM
Procedure: HepG2 cells were seeded in a 6-well plate at a density of 5 × 10^6 cells/well and treated with either KJ-5 or KJ-12 at concentrations of 2, 4, or 8 μM for 24 h. Cells were then collected and responded in […] of cold PBS. Subsequently, 700 μL of cold 70% ethanol was added to the cells and gently mixed by inversion on ice for 1 h. Cells were then centrifuged at 2,000 rpm for 10 min, washed once with 2 mL of cold PBS, and the supernatant was discarded. The cell pellet was resuspended in 250 μL of cold PBS, followed by the addition of 10 μL of RNase at a final concentration of 0.4 mg/mL and incubated at 37°C for 30 min. An additional 250 μL of PBS was added, followed by the addition of 5 μL of PI solution at a final concentration of 10 μg/mL. The samples were incubated […] in the dark overnight at 4°C. Finally, the samples were analyzed by flow cytometry.

[5] = system: HepG2 cells; assay: Transwell migration assay (without Matrigel); conditions: HepG2, 24 h treatment, vs control
Procedure: HepG2 cells were treated with either KJ-5 or KJ-12 for 24 h. Then, the cells were suspended and seeded into the upper chamber of a 24-well Transwell plate (Corning Inc., United States) in serum-free medium. The cells were cultured for 24 h at 37°C; a medium containing 20% FBS as a chemoattractant was added to the lower chamber. HepG2 cells that had invaded through the membrane were fixed with 4% paraformaldehyde for 20 min and stained with 0.1% crystal violet. Five random fields were then imaged and quantified using an inverted fluorescence microscope (Axio Observer3, Germany). To assess invasion, transwell assays were performed in a similar manner, with the exception of coating the upper chamber of the Transwell with 100 μL of diluted Matrigel solution per well.

[6] = system: Bcl-2, Bax, cleaved caspase-9, cleaved caspase-3, cleaved PARP in HepG2 cells; assay: Western blot of mitochondrial apoptotic proteins; conditions: for Bax levels / Bax/Bcl-2 ratio / Bcl-2 protein levels: HepG2, 2, 4 or 8 μM, 24 h; for Expression of cleaved PARP / Expression of cleaved caspase-3 / Expression of cleaved caspase-9: HepG2, vs control
Procedure: After being pretreated with either KJ-5 or KJ-12 at concentrations of 2, 4, or 8 μM for 24 h, the cells were harvested and lysed using an ice-cold cell lysis buffer from Beyotime Biotechnology (Shanghai, China). The proteins were mixed with a loading buffer and denatured by heating at 95°C–100°C for 5–10 min. Equal amounts of protein were loaded onto a 10% SDS-PAGE gel along with a molecular weight marker and separated by electrophoresis for 2 h. The separated proteins were transferred onto a PVDF membrane, which was blocked with 5% non-fat milk for non-specific binding sites on the membrane. Then, the membrane was incubated with primary antibodies at 4°C overnight. Following incubation with the primary antibody, the membrane was incubated with HRP-conjugated goat anti-rabbit or goat anti-mouse IgG at 37°C for 1 h. Protein bands were visualized on the PVDF membrane using an ECL hypersensitive chemiluminescence solution and a Bio-Rad gel imaging and analysis system.

[7] = Homo sapiens, KYSE-30, 48 h, MTT, read-out: IC50 KYSE-30
[8] = Homo sapiens, KYSE-30, KYSE-30, one of three experiments, unit inferred, read-out: IC50, single experiment, KYSE-30
[9] = KYSE-30, first of three experiments
[10] = KYSE-30, given as fraction, first of three experiments
[11] = KYSE-30, given as fraction, second of three experiments
[12] = KYSE-30, given as fraction, third of three experiments
[13] = KYSE-30, group 1 (concentration), fraction, single experiments
[14] = KYSE-30, group 1 (concentration), single experiments
[15] = KYSE-30, group 2 (concentration), fraction, single experiments
[16] = KYSE-30, group 2 (concentration), single experiments
[17] = KYSE-30, group 4 (concentration), fraction, single experiments
[18] = KYSE-30, group 4 (concentration), single experiments
[19] = KYSE-30, group 8 (concentration), fraction, single experiments
[20] = KYSE-30, group 8 (concentration), single experiments
[21] = KYSE-30, group 16 (concentration), fraction, single experiments
[22] = KYSE-30, group 16 (concentration), single experiments
[23] = KYSE-30, group 32 (concentration), fraction, single experiments
[24] = KYSE-30, group 32 (concentration), single experiments
[25] = KYSE-30, one of three experiments, unit inferred, read-out: IC50, single experiment, KYSE-30
[26] = KYSE-30, second of three experiments
[27] = KYSE-30, third of three experiments

In the case of COc1c2n(cc(C(=O)Nc3cccc(-c4cn(-c5cc(C(F)(F)F)cc(C(F)(F)F)c5)nn4)c3)c1=O)C[C@H]1OC[C@H](C)N1C2=O [KJ-5], the Inhibitory rate [1] is reported as 0.8445 and 0.8592 and 0.8525, the ODtreated/ODcontrol [1] is reported as 0.1555 and 0.1408 and 0.1475 and the inhibition at 4 µM [1] is reported as roughly 50%. For the same compound, the IC50 [1] was 4.29 ± 0.1 µM, the inhibition at 16 µM [1] was 85.21 ± 0.73% and the IC50 [2, 7] was 8.51 ± 0.43 µM. For the same compound, the IC50 [2, 8] was 8.96 µM, the inhibition at 16 µM ([2]; Homo sapiens, unit inferred) was 65.7 ± 0.91% and the ODtreated/ODcontrol [2, 9] was 0.346. The Inhibitory rate [2, 10] was 0.654, the Inhibitory rate [2, 11] was 0.6669 and the Inhibitory rate [2, 12] was 0.6494. The Inhibitory rate [2, 13] was 0.1205 and 0.156 and 0.08655, the ODtreated/ODcontrol [2, 14] was 0.8795 and 0.844 and 0.9135 and the Inhibitory rate [2, 15] was 0.2874 and 0.3093 and 0.2896. For the same compound, the ODtreated/ODcontrol [2, 16] was 0.7126 and 0.6907 and 0.7104, the Inhibitory rate [2, 17] was 0.3928 and 0.4106 and 0.3851 and the ODtreated/ODcontrol [2, 18] was 0.6072 and 0.5895 and 0.6149. The Inhibitory rate [2, 19] was 0.503 and 0.5061 and 0.5028, the ODtreated/ODcontrol [2, 20] was 0.497 and 0.4939 and 0.4972 and the Inhibitory rate [2, 21] was 0.6001 and 0.6158 and 0.6257. For the same compound, the ODtreated/ODcontrol [2, 22] was 0.3999 and 0.3842 and 0.3743, the Inhibitory rate [2, 23] was 0.6693 and 0.6807 and 0.6972 and the ODtreated/ODcontrol [2, 24] was 0.3307 and 0.3193 and 0.3028. The IC50 [2, 25] was 8.11 µM and 8.46 µM, the ODtreated/ODcontrol [2, 26] was 0.3331 and the ODtreated/ODcontrol [2, 27] was 0.3506. For the same compound, the “Apoptotic morphological changes, DAPI staining” value [3] was “cell shrinkage, nuclear condensation, and chromatin fragmentation”, the “Percentage of cells in the G1 phase” value ([4]; HepG2, 2 μM) was 21.2% and the “Percentage of cells in the G2/M phase” value ([4]; HepG2, 2 μM) was 50.4%. For the same compound, the “Percentage of cells in the G1 phase” value ([4]; HepG2, 4 μM) was 15%, the “Percentage of cells in the G2/M phase” value ([4]; HepG2, 4 μM) was 58.3% and the “Percentage of cells in the G1 phase” value ([4]; HepG2, 8 μM) was 13.5%. For the same compound, the “Percentage of cells in the G2/M phase” value ([4]; HepG2, 8 μM) was 62.6%, the “Percentage of cells in the S phase (change vs control)” value [4] was “did not change significantly” and the “Migration of HepG2 cells (transwell without Matrigel)” value [5] was “significantly impaired”. For the same compound, the Bax levels [6] was “increased”, the Bax/Bcl-2 ratio [6] was “increased” and the Bcl-2 protein levels [6] was “decreased”. For the same compound, the “Expression of cleaved PARP” value [6] was “significantly increased”, the “Expression of cleaved caspase-3” value [6] was “significantly increased” and the “Expression of cleaved caspase-9” value [6] was “significantly increased”.

With COc1c2n(cc(C(=O)Nc3cccc(-c4cn(-c5c(C)cc(C)cc5C)nn4)c3)c1=O)C[C@H]1OC[C@H](C)N1C2=O [KJ-12] the Inhibitory rate [1] was 0.742 and 0.7786 and 0.787, the ODtreated/ODcontrol [1] was 0.258 and 0.2214 and 0.213 and the inhibition at 4 µM [1] was roughly 50%. It also gave an IC50 [1] of 4.07 ± 0.09 µM, an inhibition at 16 µM [1] of 76.9 ± 2.4% and an IC50 [2, 7] of 11.7 ± 0.21 µM. It also gave an IC50 [2, 8] of 11.8 µM, an inhibition at 16 µM ([2]; Homo sapiens, unit inferred) of 56.1 ± 4.59% and an ODtreated/ODcontrol [2, 9] of 0.4595. The Inhibitory rate [2, 10] was 0.5405, the Inhibitory rate [2, 11] was 0.5295 and the Inhibitory rate [2, 12] was 0.614. The Inhibitory rate [2, 13] was 0.1337 and 0.126 and 0.1387, the ODtreated/ODcontrol [2, 14] was 0.8663 and 0.874 and 0.8613 and the Inhibitory rate [2, 15] was 0.1741 and 0.1797 and 0.2087. For the same compound, the ODtreated/ODcontrol [2, 16] was 0.8259 and 0.8203 and 0.7913, the Inhibitory rate [2, 17] was 0.2947 and 0.287 and 0.2904 and the ODtreated/ODcontrol [2, 18] was 0.7053 and 0.713 and 0.7096. For the same compound, the Inhibitory rate [2, 19] was 0.4545 and 0.4401 and 0.4294, the ODtreated/ODcontrol [2, 20] was 0.5455 and 0.5599 and 0.5706 and the Inhibitory rate [2, 21] was 0.517 and 0.5136 and 0.5274. For the same compound, the ODtreated/ODcontrol [2, 22] was 0.483 and 0.4864 and 0.4726, the Inhibitory rate [2, 23] was 0.7126 and 0.7246 and 0.731 and the ODtreated/ODcontrol [2, 24] was 0.2874 and 0.2754 and 0.269. For the same compound, the IC50 [2, 25] was 11.9 µM and 11.5 µM, the ODtreated/ODcontrol [2, 26] was 0.4705 and the ODtreated/ODcontrol [2, 27] was 0.386. For the same compound, the “Apoptotic morphological changes, DAPI staining” value [3] was “cell shrinkage, nuclear condensation, and chromatin fragmentation”, the “Percentage of cells in the G1 phase” value ([4]; HepG2, 2 μM) was 47.4% and the “Percentage of cells in the G2/M phase” value ([4]; HepG2, 2 μM) was 22.2%. For the same compound, the “Percentage of cells in the G1 phase” value ([4]; HepG2, 4 μM) was 25%, the “Percentage of cells in the G2/M phase” value ([4]; HepG2, 4 μM) was 47.5% and the “Percentage of cells in the G1 phase” value ([4]; HepG2, 8 μM) was 16.4%. For the same compound, the “Percentage of cells in the G2/M phase” value ([4]; HepG2, 8 μM) was 59.7%, the “Percentage of cells in the S phase (change vs control)” value [4] was “remained unchanged substantially” and the “Migration of HepG2 cells (transwell without Matrigel)” value [5] was “significantly impaired”. For the same compound, the Bax levels [6] was “increased”, the Bax/Bcl-2 ratio [6] was “increased” and the Bcl-2 protein levels [6] was “decreased”. For the same compound, the “Expression of cleaved PARP” value [6] was “significant increase”, the “Expression of cleaved caspase-3” value [6] was “significant increase” and the “Expression of cleaved caspase-9” value [6] was “significant increase”.
